The conditions of series [1]: for Cmax/dose / Tmax: iv.
The next series can be described thus: clinical. The conditions noted are these: human, in vivo, iv.

This is an account of results in paper PMC4104496 (Clinical cancer research : an official journal of the …, 2012).

Where two headings read alike, the source gives them in different places.

`CCc1c2c(nc3ccc(OC(=O)N4CCC(N)CC4)cc13)-c1cc3c(c(=O)n1C2)COC(=O)[C@]3(O)CC` [NPC, 7-ethyl-10-(4-amino-1-piperidino) carbonyloxycamptothecin]: the plasma concentrations entry in series [1] (in vivo) is listed as “near the limit of quantitation”.
For `CCc1c2c(nc3ccc(OC(=O)N4CCC(N5CCCCC5)CC4)cc13)-c1cc3c(c(=O)n1C2)COC(=O)[C@]3(O)CC` [irinotecan, reference compound], in series [1] (in vivo), the trough concentrations entry was “detectable”. The Tmax in “clinical” turned out to be 0.167 days.
As for `CCc1c2c(nc3ccc(OC(=O)N4CCC(NCCCCC(=O)O)CC4)cc13)-c1cc3c(c(=O)n1C2)COC(=O)C3(O)CC` (stereo not drawn) [APC, 7-ethyl-10-(4-N-(5-aminopentanoic acid)-1-piperidine)carbonyloxycamptothecin], in series [1] (human, in vivo), the AUC/dose was 13 (73) h*ng/mL/mg/m^2, the “CL or CL/F” value is recorded as 96 (49) L/h/m^2, the “T1/2 (terminal elimination half-life)” value is 58 (8) d and the terminal disposition half-life stood at 53 days. Besides, in series [1] (human, in vivo), the Cmax/dose is 0.08 (118) ng/mL/mg/m^2 and the Tmax was 20 (41) h. Also, in series [1] (in vivo), the “V or V/F” value was 170 L/m^2 and the trough concentrations result is reported as “detectable”.
Take `CCc1c2c(nc3ccc(O[C@@H]4O[C@H](C(=O)O)[C@@H](O)[C@H](O)[C@H]4O)cc13)-c1cc3c(c(=O)n1C2)COC(=O)[C@]3(O)CC` [SN-38-G, SN-38-glucuronide]: the “T1/2 (terminal elimination half-life)” value in series [1] (Mean (%CV), plasma, 76 patients, after etirinotecan pegol 58 to 245 mg/m^2) was 61 (37) d. Further, the trough concentrations entry in series [1] (after etirinotecan pegol dosing with all 3 schedules) was “detectable”. The compound also displayed a terminal disposition half-life in series [1] (plasma, patients, after etirinotecan pegol administration) of 61 days.
As to `CCc1c2c(nc3ccc(O)cc13)-c1cc3c(c(=O)n1C2)COC(=O)[C@]3(O)CC` [SN-38], in series [1] (human, in vivo), the AUC/dose is given as 8 (52) h*ng/mL/mg/m^2, the “CL or CL/F” value is listed as 170 (59) L/h/m^2, the “T1/2 (terminal elimination half-life)” value is recorded as 50 (28) d and the Cmax/dose was 0.02 (55) ng/mL/mg/m^2. In series [1] (human, in vivo), the Tmax was 13 (170) h. For the same compound, in series [1] (in vivo), the “V or V/F” value amounted to 27 L/m^2 and the trough concentrations result is given as “detectable”.
